We go through 23 molecules from PubChem BioAssay AID256 (DTP/NCI, 2004).

The test relates to CD2F1 mice, L1210 leukemia ip, survival T/C. Kind of test: NCI In Vivo Anticancer Drug Screen. Data for tumor model L1210 Leukemia (intraperitoneal) in CD2F1 (CDF1) mice. As to conditions: endpoint: mean survival time, higher = longer survival. The procedure, abridged:
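Activity against a transplanted murine tumor was judged by comparing the compound group with a vehicle group. The outcome in the treated animals was divided by that in the controls.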

The mark [1] stands for this setting: dose: 100.0 mg/kg/injection, schedule: Q01DX001 (ip), vehicle: saline.
The mark [2] stands for this setting: dose: 100.0 mg/kg/injection, schedule: Q04DX003 (ip), vehicle: saline with Tween-80.
[3] abbreviates: dose: 200.0 mg/kg/injection, schedule: Q04DX003 (ip), vehicle: saline with Tween-80.
Where [4] appears, read: dose: 400.0 mg/kg/injection, schedule: Q04DX003 (ip), vehicle: saline with Tween-80.
The mark [5] stands for this setting: dose: 50.0 mg/kg/injection, schedule: Q01DX009 (ip), vehicle: saline with Tween-80.
Setting [6] is: dose: 200.0 mg/kg/injection, schedule: Q01DX001 (ip), vehicle: saline.
Setting [7] is: dose: 400.0 mg/kg/injection, schedule: Q01DX001 (ip), vehicle: saline.
Setting [8] is: dose: 100.0 mg/kg/injection, schedule: Q01DX009 (ip), vehicle: saline with Tween-80.
[9] abbreviates: dose: 200.0 mg/kg/injection, schedule: Q01DX009 (ip), vehicle: saline with Tween-80.
The mark [10] stands for this setting: dose: 400.0 mg/kg/injection, schedule: Q01DX009 (ip), vehicle: saline with Tween-80.
The mark [11] stands for this setting: dose: 100.0 mg/kg/injection, schedule: Q01DX001 (ip), vehicle: saline with Tween-80.
Setting [12] is: dose: 200.0 mg/kg/injection, schedule: Q01DX001 (ip), vehicle: saline with Tween-80.
The mark [13] stands for this setting: dose: 100.0 mg/kg/injection, schedule: Q01DX001 (ip), vehicle: other.
[14] abbreviates: dose: 200.0 mg/kg/injection, schedule: Q01DX001 (ip), vehicle: other.
Setting [15] is: dose: 400.0 mg/kg/injection, schedule: Q01DX001 (ip), vehicle: other.
[16] abbreviates: dose: 100.0 mg/kg/injection, schedule: Q01DX009 (ip), vehicle: other.
Where [17] appears, read: dose: 200.0 mg/kg/injection, schedule: Q01DX009 (ip), vehicle: other.
The mark [18] stands for this setting: dose: 100.0 mg/kg/injection, schedule: Q04DX003 (ip), vehicle: Klucel (hydroxypropylcellulose) (HPC).
[19] abbreviates: dose: 200.0 mg/kg/injection, schedule: Q04DX003 (ip), vehicle: Klucel (hydroxypropylcellulose) (HPC).
Setting [20] is: dose: 400.0 mg/kg/injection, schedule: Q04DX003 (ip), vehicle: Klucel (hydroxypropylcellulose) (HPC).

Structures are written as SMILES. Inconclusive results and toxic doses are left out.

`CN(CCC#N)C(=O)Nc1ccccc1`: the T/C was 93 % of control (dose: 100.0 mg/kg/injection, schedule: Q04DX003 (ip), vehicle: saline + alcohol); 98 % of control (dose: 200.0 mg/kg/injection, schedule: Q04DX003 (ip), vehicle: saline + alcohol); 95 % of control (dose: 400.0 mg/kg/injection, schedule: Q04DX003 (ip), vehicle: saline + alcohol).

`O=C(NCCCCCCCCNC(=O)N1CC1)N1CC1`: the T/C was 117 % of control (dose: 1.5 mg/kg/injection, schedule: Q01DX001 (ip), vehicle: carboxymethylcellulose (CMC)); 111 % of control (dose: 2.25 mg/kg/injection, schedule: Q01DX001 (ip), vehicle: carboxymethylcellulose (CMC)); 121 % of control (dose: 3.3 mg/kg/injection, schedule: Q01DX001 (ip), vehicle: carboxymethylcellulose (CMC)); 122 % of control (dose: 5.0 mg/kg/injection, schedule: Q01DX001 (ip), vehicle: carboxymethylcellulose (CMC)); 152 % of control (dose: 7.5 mg/kg/injection, schedule: Q01DX001 (ip), vehicle: carboxymethylcellulose (CMC)); 183 % of control (dose: 11.0 mg/kg/injection, schedule: Q01DX001 (ip), vehicle: carboxymethylcellulose (CMC)).

For the molecule `CN(N=O)C(=O)NC1C(CO)OC(n2ccc(=O)[nH]c2=O)C1O` (stereo not drawn), the T/C is, setting by setting: (dose: 13.0 mg/kg/injection, schedule: Q01DX001 (ip), vehicle: saline) 105 % of control; (dose: 20.0 mg/kg/injection, schedule: Q01DX001 (ip), vehicle: saline) 107 % of control; (dose: 30.0 mg/kg/injection, schedule: Q01DX001 (ip), vehicle: saline) 110 % of control; (dose: 44.0 mg/kg/injection, schedule: Q01DX001 (ip), vehicle: saline) 111 % of control; (dose: 67.0 mg/kg/injection, schedule: Q01DX001 (ip), vehicle: saline) 107 % of control; under setting [1], 122 % of control. Further, the T/C (dose: 150.0 mg/kg/injection, schedule: Q01DX001 (ip), vehicle: saline) was 121 % of control.

With `CCC[CH2][Sn]1([CH2]CCC)[O]OC(c2ccc(C(=O)OCC)cc2)[O]1` (stereo not drawn), the T/C by setting is: (dose: 1.56 mg/kg/injection, schedule: Q04DX002 (ip), vehicle: other) 101 % of control; (dose: 3.13 mg/kg/injection, schedule: Q04DX002 (ip), vehicle: other) 116 % of control.

With `Nn1nc2ccccc2n1`, the T/C is 111 % of control under setting [2], 117 % of control under setting [3] and 95 % of control under setting [4].

Take `CC(=O)n1cc(F)c(=O)[nH]c1=O`: the T/C is, setting by setting: (dose: 16.5 mg/kg/injection, schedule: Q01DX009 (ip), vehicle: saline) 172 % of control; (dose: 25.0 mg/kg/injection, schedule: Q01DX009 (ip), vehicle: saline with Tween-80) 169 % of control; under setting [5], 105 % of control.

Consider `BrC1CCCC1`, for which the T/C was 100 % of control under setting [1], 102 % of control under setting [6] and 102 % of control under setting [7].

On to `O=S(=O)(Nc1ccc(O)cc1)c1ccccc1`, for which the T/C runs as follows: under setting [8], 103 % of control; under setting [2], 101 % of control; under setting [9], 95 % of control; under setting [3], 103 % of control; under setting [10], 95 % of control; under setting [4], 107 % of control.

Take `NNC(=O)Sc1ccccc1`: the T/C reads like this: under setting [1], 107 % of control; under setting [6], 111 % of control; under setting [7], 102 % of control.

Turning to `CSc1c(Cl)cc(Cl)cc1C(=O)O`, the T/C runs as follows: under setting [2], 94 % of control; under setting [3], 91 % of control; under setting [4], 96 % of control.

On to `O=c1[nH]ccc(=S)[nH]1`, for which the T/C was 97 % of control under setting [11] and 88 % of control under setting [12].

Turning to `c1coc(CNC2=NCCO2)c1`, the T/C runs as follows: under setting [13], 95 % of control; under setting [14], 103 % of control; under setting [15], 90 % of control.

For the molecule `N#C/C(=C\C1CC(Br)CCC1O)C1CCC([N+](=O)[O-])CC1` (stereo not drawn), the T/C was 86 % of control under setting [5] and 88 % of control under setting [8].

Turning to `COc1cc(/C(C)=N\O)ccc1O`, the T/C under setting [13] is 102 % of control; the T/C under setting [16] is 107 % of control; the T/C under setting [14] is 108 % of control; the T/C under setting [17] is 102 % of control; the T/C under setting [15] is 98 % of control; the T/C (dose: 400.0 mg/kg/injection, schedule: Q01DX009 (ip), vehicle: other) was 90 % of control.

As for `N#CC(C#N)=C1Cc2ccccc2C1`, the T/C (dose: 12.5 mg/kg/injection, schedule: Q04DX003 (ip), vehicle: saline with Tween-80) was 93 % of control; the T/C (dose: 25.0 mg/kg/injection, schedule: Q04DX003 (ip), vehicle: saline with Tween-80) was 100 % of control; the T/C (dose: 50.0 mg/kg/injection, schedule: Q04DX003 (ip), vehicle: saline with Tween-80) is 94 % of control.

On to `O=C(O)C(=CCc1cccc2ccccc12)C(=O)O`, for which the T/C is 101 % of control under setting [18], 100 % of control under setting [19] and 103 % of control under setting [20].

Turning to `CC(=O)OC1COC(n2c(=S)n(-c3ccccc3)c(=N)c3ccccc32)C(OC(C)=O)C1OC(C)=O` (stereo not drawn), the T/C runs as follows: (dose: 12.5 mg/kg/injection, schedule: Q01DX005 (ip), vehicle: distilled water + Tween-80) 90 % of control; (dose: 25.0 mg/kg/injection, schedule: Q01DX005 (ip), vehicle: distilled water + Tween-80) 87 % of control; (dose: 50.0 mg/kg/injection, schedule: Q01DX005 (ip), vehicle: distilled water + Tween-80) 93 % of control; (dose: 200.0 mg/kg/injection, schedule: Q01DX005 (ip), vehicle: distilled water + Tween-80) 92 % of control.

As for `COc1ccc2c(ccc3nc(C)[nH]c(=O)c32)c1`, the T/C reads like this: (dose: 25.0 mg/kg/injection, schedule: Q01DX001 (ip), vehicle: Klucel (hydroxypropylcellulose) (HPC)) 102 % of control; (dose: 50.0 mg/kg/injection, schedule: Q01DX001 (ip), vehicle: Klucel (hydroxypropylcellulose) (HPC)) 94 % of control; (dose: 100.0 mg/kg/injection, schedule: Q01DX001 (ip), vehicle: Klucel (hydroxypropylcellulose) (HPC)) 90 % of control.

As for `CS(=O)(=O)OCC1C(COS(C)(=O)=O)N(S(C)(=O)=O)S(=O)N1S(C)(=O)=O` (stereo not drawn), the T/C is, setting by setting: under setting [1], 100 % of control; (dose: 100.0 mg/kg/injection, schedule: Q04DX003 (ip), vehicle: saline) 111 % of control; under setting [6], 95 % of control; (dose: 200.0 mg/kg/injection, schedule: Q04DX003 (ip), vehicle: saline) 108 % of control; under setting [7], 94 % of control; (dose: 400.0 mg/kg/injection, schedule: Q04DX003 (ip), vehicle: saline) 91 % of control.

Regarding `N#C/C(=C1C=C/C(=N/O)C(Br)=C/1)c1ccccc1`, the T/C runs as follows: under setting [8], 108 % of control; under setting [9], 96 % of control; under setting [10], 95 % of control.

`Cn1c(=O)c(CC(O)C(Cl)(Cl)Cl)nc2ccccc21` (stereo not drawn): the T/C is, setting by setting: under setting [18], 95 % of control; under setting [19], 95 % of control; under setting [20], 98 % of control.

Take `CCOC1(C)OC2OC(COC(c3ccccc3)(c3ccccc3)c3ccccc3)C(O)C(O)C2O1` (stereo not drawn): the T/C was 97 % of control (dose: 12.5 mg/kg/injection, schedule: Q01DX009 (ip), vehicle: other); 103 % of control (dose: 25.0 mg/kg/injection, schedule: Q01DX009 (ip), vehicle: other); 101 % of control (dose: 50.0 mg/kg/injection, schedule: Q01DX009 (ip), vehicle: other); 98 % of control under setting [16]; 101 % of control under setting [17].

For the molecule `CCCC(=O)Nc1ccccc1`, the T/C was 96 % of control under setting [11]; 102 % of control under setting [8]; 95 % of control under setting [12]; 102 % of control under setting [9]; 98 % of control (dose: 400.0 mg/kg/injection, schedule: Q01DX001 (ip), vehicle: saline with Tween-80); 112 % of control under setting [10].
